In PubChem BioAssay AID1918930 (Molecular Pharmacology Branch, DTP, NCI, 2023):
“And” between values parts separate entries of the source, which are not always exact repeats. Identical values can stand only once.

Test system: 233499-124-R-J3-PDC complex spheroid viability, % test/control
Test: Anticancer human tumor 233499-124-R-J3-PDC patient-derived colon adenocarcinoma cell line growth inhibition
Conditions: for viability, T/C: stronger effect = lower value
Outline: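 Complex spheroids of tumor cells with HUVEC and human MSCs, exposed to iadademstat combined with other agents. Each agent tested in half-log steps from near clinical Cmax (else 10 microM top), DMSO ≤0.25%.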

[1] = curve of first compound, second compound 0.1 µM
[2] = curve of first compound, second compound 0.316 µM
[3] = curve of first compound, second compound 1 µM
[4] = curve of first compound, second compound 3.16 µM
[5] = curve of first compound, second compound 10 µM
[6] = second compound 0.1 µM, first compound 0.000949 µM
[7] = second compound 0.1 µM, first compound 0.003 µM
[8] = second compound 0.1 µM, first compound 0.00949 µM
[9] = second compound 0.1 µM, first compound 0.03 µM
[10] = second compound 0.1 µM, first compound 0.0949 µM
[11] = second compound 0.1 µM, first compound 0.3 µM
[12] = second compound 0.316 µM, first compound 0.000949 µM
[13] = second compound 0.316 µM, first compound 0.003 µM
[14] = second compound 0.316 µM, first compound 0.00949 µM
[15] = second compound 0.316 µM, first compound 0.03 µM
[16] = second compound 0.316 µM, first compound 0.0949 µM
[17] = second compound 0.316 µM, first compound 0.3 µM
[18] = second compound 1 µM, first compound 0.000949 µM
[19] = second compound 1 µM, first compound 0.003 µM
[20] = second compound 1 µM, first compound 0.00949 µM
[21] = second compound 1 µM, first compound 0.03 µM
[22] = second compound 1 µM, first compound 0.0949 µM
[23] = second compound 1 µM, first compound 0.3 µM
[24] = second compound 3.16 µM, first compound 0.000949 µM
[25] = second compound 3.16 µM, first compound 0.003 µM
[26] = second compound 3.16 µM, first compound 0.00949 µM
[27] = second compound 3.16 µM, first compound 0.03 µM
[28] = second compound 3.16 µM, first compound 0.0949 µM
[29] = second compound 3.16 µM, first compound 0.3 µM
[30] = second compound 10 µM, first compound 0.000949 µM
[31] = second compound 10 µM, first compound 0.003 µM
[32] = second compound 10 µM, first compound 0.00949 µM
[33] = second compound 10 µM, first compound 0.03 µM
[34] = second compound 10 µM, first compound 0.0949 µM
[35] = second compound 10 µM, first compound 0.3 µM
[36] = second compound 0.1 µM, first compound 0.949 µM
[37] = second compound 0.1 µM, first compound 3 µM
[38] = second compound 0.316 µM, first compound 0.949 µM
[39] = second compound 0.316 µM, first compound 3 µM
[40] = second compound 1 µM, first compound 0.949 µM
[41] = second compound 1 µM, first compound 3 µM
[42] = second compound 3.16 µM, first compound 0.949 µM
[43] = second compound 3.16 µM, first compound 3 µM
[44] = second compound 10 µM, first compound 0.949 µM
[45] = second compound 10 µM, first compound 3 µM
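Also: spheroids exposed to agents for one week before readout.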

CCc1c2c(nc3ccc(O)cc13)-c1cc3c(c(=O)n1C2)COC(=O)[C@]3(O)CC + NC1CC1c1ccc(-c2cccc(O)c2)cc1
IC50 [1]: 0.0256 µM
IC50 [2]: 0.0226 µM
IC50 [3]: 0.0245 µM
IC50 [4]: 0.0276 µM
IC50 [5]: 0.0503 µM
viability, T/C [6]: 88%
viability, T/C [7]: 122%
viability, T/C [8]: 90.8%
viability, T/C [9]: 44.2%
viability, T/C [10]: 27.7%
viability, T/C [11]: 29.5%
viability, T/C [12]: 103%
viability, T/C [13]: 112%
viability, T/C [14]: 88.1%
viability, T/C [15]: 38.3%
viability, T/C [16]: 25.2%
viability, T/C [17]: 30.3%
viability, T/C [18]: 70.4%
viability, T/C [19]: 112%
viability, T/C [20]: 101%
viability, T/C [21]: 40.6%
viability, T/C [22]: 19.6%
viability, T/C [23]: 30.4%
viability, T/C [24]: 77.6%
viability, T/C [25]: 109%
viability, T/C [26]: 98.6%
viability, T/C [27]: 46.4%
viability, T/C [28]: 31.5%
viability, T/C [29]: 24.6%
viability, T/C [30]: 65.1%
viability, T/C [31]: 88.5%
viability, T/C [32]: 105%
viability, T/C [33]: 59.7%
viability, T/C [34]: 43.8%
viability, T/C [35]: 32.4%

Cn1ncnc1C1c2n[nH]c(=O)c3cc(F)cc(c23)NC1c1ccc(F)cc1 (configuration not stated)
viability, T/C (compound 0.000316 µM): 105% and 92.2%
viability, T/C (compound 0.001 µM): 95.1% and 80.9%
viability, T/C (compound 0.00316 µM): 91.4% and 98%
viability, T/C (compound 0.01 µM): 77.6% and 88.7%
viability, T/C (compound 0.0316 µM): 77.7% and 85.1%
viability, T/C (compound 0.1 µM): 93.4% and 82.7%
IC50 (curve of compound): > 0.1 µM

Nc1ccccc1NC(=O)c1ccc(CNC(=O)OCc2cccnc2)cc1 + NC1CC1c1ccc(-c2cccc(O)c2)cc1
IC50 [1]: 0.453 µM
IC50 [2]: 0.374 µM
IC50 [3]: 0.246 µM
IC50 [4]: 0.387 µM
IC50 [5]: 0.338 µM
viability, T/C [8]: 80.8%
viability, T/C [9]: 106%
viability, T/C [10]: 100%
viability, T/C [11]: 71.4%
viability, T/C [36]: 11.4%
viability, T/C [37]: 3.1%
viability, T/C [14]: 101%
viability, T/C [15]: 106%
viability, T/C [16]: 93.1%
viability, T/C [17]: 59.9%
viability, T/C [38]: 11.3%
viability, T/C [39]: 1.9%
viability, T/C [20]: 101%
viability, T/C [21]: 98.8%
viability, T/C [22]: 75%
viability, T/C [23]: 47.7%
viability, T/C [40]: 9.92%
viability, T/C [41]: 2.32%
viability, T/C [26]: 84.4%
viability, T/C [27]: 76.1%
viability, T/C [28]: 79.8%
viability, T/C [29]: 60.5%
viability, T/C [42]: 12.9%
viability, T/C [43]: 2.93%
viability, T/C [32]: 71.4%
viability, T/C [33]: 79.6%
viability, T/C [34]: 78.2%
viability, T/C [35]: 54.6%
viability, T/C [44]: 8.25%
viability, T/C [45]: 1.7%

CCN(c1cc(-c2ccc(CN3CCOCC3)cc2)cc(C(=O)NCc2c(C)cc(C)[nH]c2=O)c1C)C1CCOCC1 + NC1CC1c1ccc(-c2cccc(O)c2)cc1
IC50 [1]: > 3 µM
IC50 [2]: > 3 µM
IC50 [3]: 2.5 µM
IC50 [4]: > 3 µM
IC50 [5]: 1.86 µM
viability, T/C [8]: 97.3%
viability, T/C [9]: 99.1%
viability, T/C [10]: 111%
viability, T/C [11]: 115%
viability, T/C [36]: 98.4%
viability, T/C [37]: 51.8%
viability, T/C [14]: 117%
viability, T/C [15]: 124%
viability, T/C [16]: 112%
viability, T/C [17]: 129%
viability, T/C [38]: 98.5%
viability, T/C [39]: 50.8%
viability, T/C [20]: 97%
viability, T/C [21]: 99.7%
viability, T/C [22]: 93.7%
viability, T/C [23]: 107%
viability, T/C [40]: 85%
viability, T/C [41]: 43.4%
viability, T/C [26]: 99%
viability, T/C [27]: 105%
viability, T/C [28]: 90.5%
viability, T/C [29]: 80.7%
viability, T/C [42]: 77.2%
viability, T/C [43]: 53.9%
viability, T/C [32]: 79.3%
viability, T/C [33]: 88.6%
viability, T/C [34]: 84.7%
viability, T/C [35]: 93.2%
viability, T/C [44]: 65.8%
viability, T/C [45]: 38.8%

Nc1ncn(C2CC(O)C(CO)S2)c(=O)n1 (configuration not stated) + NC1CC1c1ccc(-c2cccc(O)c2)cc1
IC50 [1]: 0.1 µM
IC50 [2]: 0.102 µM
IC50 [3]: 0.124 µM
IC50 [4]: 0.128 µM
IC50 [5]: 0.0815 µM
viability, T/C [6]: 95.5%
viability, T/C [7]: 94.1%
viability, T/C [8]: 117%
viability, T/C [9]: 101%
viability, T/C [10]: 51.2%
viability, T/C [11]: 25.6%
viability, T/C [12]: 108%
viability, T/C [13]: 96.7%
viability, T/C [14]: 114%
viability, T/C [15]: 114%
viability, T/C [16]: 51.2%
viability, T/C [17]: 31.5%
viability, T/C [18]: 85.7%
viability, T/C [19]: 96.4%
viability, T/C [20]: 103%
viability, T/C [21]: 87%
viability, T/C [22]: 57.2%
viability, T/C [23]: 26.7%
viability, T/C [24]: 81%
viability, T/C [25]: 86.9%
viability, T/C [26]: 85.8%
viability, T/C [27]: 89.1%
viability, T/C [28]: 58.4%
viability, T/C [29]: 26%
viability, T/C [30]: 80.2%
viability, T/C [31]: 83.4%
viability, T/C [32]: 81.5%
viability, T/C [33]: 83.8%
viability, T/C [34]: 45%
viability, T/C [35]: 34.7%
